Several values for one entry are separate records, joined by “and”; a condition that tells them apart may be missing. Equal entries are not always repeated.
System: German cockroaches
Test: Topical application toxicity test: mortality of adult German cockroaches 24 hours after treatment
Format: in vivo, Blattella germanica (German cockroach)
Conditions: for increase in mortality when combined with PD23 mineral oil, compared to the other compounds tested (in words): cockroaches; for increase in mortality when combined with PD23 mineral oil, compared to the other compounds tested (in words) / # dead / Arcsine square root % dead / Proportion dead / Square root % dead: 24 hours; for # dead / Arcsine square root % dead / Proportion dead / Square root % dead: male cockroaches; for # dead: 1 μl, remainder acetone; for pest or weed control at 2 mg: read-out: Proportion dead at 24 hr, compound alone, 2.00 mg
Method: Toxicity evaluations were performed on 7-14 day old adult male and female German cockroaches (SCJ Strain, S.C. Johnson & Son, Racine, Wis.). Approximately 12 cockroaches were transferred to individual 100×20 mm polystyrene Petri dishes and anesthetized with a 15-25 second exposure to carbon dioxide. The inside edge of each Petri dish was lightly coated with mineral oil plus petroleum jelly in a 1:3 (wt/wt) ratio to minimize escape. Anesthetized cockroaches were positioned with their ventral side up, and a 1 μl drop of the diluted test composition was applied to the area between the meso- and metathoracic legs using a Rainin L-10, 10 μl capacity pipette (Rainin Instrument, LLC, Oakland, Calif.). Five replications of 12 male cockroaches were done for each test composition. Separate tests were done using female cockroaches. Results were evaluated at 24 hours following treatment. Cockroaches were scored as either alive (dorsal side up, active movement when abdomen prodded with dissecting probe) or moribund/dead (dorsal side up and no movement when abdomen prodded or ventral side up and insect unable to right itself).
The compositions comprising alcohol and/or mineral oil are described in Table 13.
In this example, the effectiveness of compositions comprising various compounds and/or mineral oil at killing cockroaches was tested.

[1] = Blattella germanica, topical, 24 h, compound alone, 0.10 mg, topical, 24 h, read-out: Proportion dead at 24 hr
[2] = compound alone, 0.10 mg, topical, 24 h
[3] = Table 17, composite data, amounts as in label
[4] = compound alone, 1.50 mg, topical, 24 h
[5] = compound alone, 2.00 mg, topical, 24 h
[6] = Table 6, per replicate, listed as Dioxane (50%)
[7] = Table 4, per replicate, listed as Isopropyl myristate (80%)
[8] = Blattella germanica, topical, 24 h, topical, 24 h
[9] = Table 7, per replicate, listed as d-limonene (40%)

`CCOCCO` [2-ethoxyethanol] was tested, and the “increase in mortality when combined with PD23 mineral oil, compared to the other compounds tested (in words)” value (“increase in mortality when combined” for short) was “greatest increase in mortality”.

`CC(=O)c1ccccc1` [Acetophenone] was tested, and the pest or weed control at 0.1 mg [1] was 0%, the “increase in mortality when combined” value was “greatest increase in mortality” and the “# dead at 24 h” value [2] was 0.

In the case of `OCCOCCO` [Di(ethylene) glycol], the “Proportion dead at 24 h” value (Table 17, composite data) is reported as 0.182 and the “# dead at 24 h” value [3] is reported as 6.

In the case of `ClCCl` [Dichloromethane (methylene chloride)], the “# dead at 24 h” value [4] is reported as 0 and the “Proportion dead at 24 hr” value [4] is reported as 0.000.

For `COCOC.COCOC` [Dimethoxymethane (methylal)], the “# dead at 24 h” value [5] was 0 and the “Proportion dead at 24 hr” value [5] was 0.000.

For `C1COCCO1` [Dioxane], the “# dead” value [6] was 0 (4×) and 1, the “Arcsine square root % dead” value [6] was 0 (4×) and 16.1 and the Proportion dead [6] was 0 (4×) and 0.07692. For the same compound, the “Square root % dead” value [6] was 0 (4×) and 0.2774.

With `CC(=O)OC(C)C` [Isopropyl acetate] the pest or weed control at 1 mg (Blattella germanica, topical, 24 h, compound alone, 1.00 mg, topical, 24 h, read-out: Proportion dead at 24 hr) was 10%.

In the case of `CCCCCCCCCCCCCC(=O)OC(C)C` [Isopropyl myristate], the “# dead” value [7] is reported as 1 (3×) and 0, the “Arcsine square root % dead” value [7] is reported as 16.78 and 14.96 (2×) and 0 and the Proportion dead [7] is reported as 0.08333 and 0.06667 (2×) and 0. For the same compound, the “Square root % dead” value [7] was 0.2887 and 0.2582 (2×) and 0 and the “Average arcsine sq. root % dead” value (Table 5, combined data for each treatment group of Table 4) was 11.68.

With `CC(Cl)(Cl)Cl` [Methyl chloroform] the “Proportion dead at 24 h” value (Table 17, composite data) was 0.095, the “# dead at 24 h” value [3] was 2 and the “# dead at 24 h” value [5] was 1. The “Proportion dead at 24 hr” value [5] was 0.091 and 0.100.

Compound `COC(C)(C)C` [Methyl t-butyl ether] has a pest or weed control at 2 mg [8] of 16.7%.

In the case of `c1ccncc1` [Pyridine], the “increase in mortality when combined” value is reported as “greatest increase in mortality”.

In the case of `C1CCOC1` [Tetrahydrofuran], the pest or weed control at 0.8 mg (Blattella germanica, topical, 24 h, read-out: Proportion dead at 24 hr, compound alone, 0.80 mg, topical, 24 h) is reported as 30% and the “# dead at 24 h” value (compound alone, 0.80 mg, topical, 24 h) is reported as 3.

In the case of `Cc1ccccc1` [Toluene], the pest or weed control at 0.9 mg (Blattella germanica, topical, 24 h, read-out: Proportion dead at 24 hr, compound alone, 0.90 mg, topical, 24 h) is reported as 0% and the “# dead at 24 h” value (compound alone, 0.90 mg, topical, 24 h) is reported as 0.

In the case of `CC(=O)OCC(COC(C)=O)OC(C)=O` [Triacetin], the “increase in mortality when combined” value is reported as “greatest increase in mortality”.

With `C=C(C)[C@H]1CC=C(C)CC1` [d-limonene] the “# dead” value [9] was 1 and 0 and 2 (2×), the “Arcsine square root % dead” value [9] was 15.5 and 0 and 21.42 and 22.21 and the Proportion dead [9] was 0.07143 and 0 and 0.1333 and 0.1429. For the same compound, the “Square root % dead” value [9] was 0.2673 and 0 and 0.3651 and 0.378 and the “Average arcsine sq. root % dead” value (Table 8, combined data for each treatment group of Table 7) was 14.78.

`CCOCC` [diethyl ether] was tested, and the pest or weed control at 2 mg [8] was 0% and the “# dead at 24 h” value [5] was 0.

`O=C1CCCO1` [gamma butyrolactone] was tested, and the pest or weed control at 0.25 mg (Blattella germanica, topical, 24 h, read-out: Proportion dead at 24 hr, compound alone, 0.25 mg, topical, 24 h) was 42.9% and the “increase in mortality when combined” value was “greatest increase in mortality”.

`CN1CCCC1=O` [n-methyl pyrrolidone] was tested, and the pest or weed control at 0.05 mg (Blattella germanica, topical, 24 h, compound alone, 0.05 mg, topical, 24 h, read-out: Proportion dead at 24 hr) was 10%, the pest or weed control at 0.1 mg [1] was 50% and the “# dead at 24 h” value (compound alone, 0.05 mg, topical, 24 h) was 1. The “# dead at 24 h” value [2] was 5.

With `C[N+](=O)[O-]` [nitromethane] the pest or weed control at 0.7 mg (Blattella germanica, topical, 24 h, read-out: Proportion dead at 24 hr, compound alone, 0.70 mg, topical, 24 h) was 0%, the “increase in mortality when combined” value was “greatest increase in mortality” and the “# dead at 24 h” value (compound alone, 0.70 mg, topical, 24 h) was 0.

In the case of `CC(C)(C)O` [tertiary butyl alcohol], the “# dead at 24 h” value (Table 13, per replicate (10-16 treated), amounts as in label, listed as t-butyl alcohol (0.5 mg)) is reported as 0 (3×) and 2, the “Proportion dead at 24 h” value (Table 13, per replicate, amounts as in label, listed as t-butyl alcohol (0.5 mg)) is reported as 0.000 (3×) and 0.182 and the “Proportion dead at 24 h” value (Table 14, composite data) is reported as 0.045. For the same compound, the “# dead at 24 h” value (Table 14, composite data, amounts as in label) was 2.

— US20090258889A1, “PESTICIDAL COMPOSITIONS” (Whitmire Micro-Gen Research Laboratories, Inc., priority 2008, published 2009)
